Data set [1] concerns Diet-Induced Obese (DIO) mice. In words: Pilot study of BGE-105 in aged DIO mice treated with semaglutide (Example 1). Format: in vivo. An excerpt:
Endpoints and measurements used to assess effects included: • Body Weight, Clinical Evaluation & Body Condition Score; • Group Food Intake, Water Intake; • Fed Glucose; • Body composition by Echo-MRI; • Baseline and endpoint grid hang tests; and • Endpoint tissue harvest.
25-month-old (aged) C57BL/6 female mice were used in this study. Diet for 25-month-old C57BL/6 mice included lean control D12450B (10 kcal % fat), or a diet induced-obesity (DIO) diet D12492 (60 kcal % fat) (Research Diets, Inc.). The study duration was 37 days. Treatment started on Day 0 and ended on Day 35-36.
Semaglutide was purchased from MCE (Cat No. HY-114118/CS-0069903)
Mice from all Groups (1-5) were measured with fed glucose, and body weight and body composition for randomization.
Body weight, group food intake, group water intake, body composition and grid hang tests were measured and monitored during the study.
On the day of necropsy, blood plasma and tissue samples were collected.

The test system of data set [2] is aged mice. The note with it: aged mice (18-month-old) first injected with a cardiotoxin; cited from earlier work.
The subject of data set [3] is healthy adult subjects. In words: Phase 1 Part A (SAD) safety and tolerability. The data set is classed as in vivo, human. How it is done: (§1) After a baseline period of 24 hours in the clinic, all subjects receive a LD, 1-hour infusion on Day 1. After a 48-hour wash-out period, in which PK and PK/PD data iscollected, subjects receive a 23-hour infusion (1-hour LD followed by a 22-hour maintenance dose). See FIG. 45 for the different dose levels in each SAD cohort. See e.g., Table 33 below. Part A is double-blinded. The cohorts of Part A is conducted sequentially starting with SAD cohort 1.
On Day 1 for Part A, subjects receive LD, 1-hour infusion. On Day 3, after a 48-hour washout period, subjects then receive a 23-hour infusion (1-hour LD followed by a 22-hour MD). No earlier than 24 hours after the end of infusion, subjects is discharged from the clinic on Day 5 (End of Treatment Period [EOTP]). A treatment protocol for the SAD cohorts of Part A is described below: • a. Predose assessments (vital signs and PK assessments) should be done within 30 min of the start of infusion. • b. Vital signs include diastolic and systolic blood pressure and pulse. In addition, temperature and respiratory rate should be collected on predose Day 1 and EOT Day 5. • c. […] AEs was recorded from the start time of the first BGE-105 or placebo study drug infusion until the end of the subject's participation in the study. […]
(§2) The Safety Analysis Set is used for safety analysis. Subjects is analyzed based on the actual treatment received.

The nature of data set [4]: 9-month oral toxicity study in dogs. The data set is classed as in vivo. The note with it: dog. The protocol: (§3) The updated exposure margins considering the highest maximum exposures in rats and dogs are calculated as follows: • Maximum exposure in the rat (male) was in the 14-day IV study and at the 300 mg/kg dose, the AUClast is 1070 μg*hr/mL. • Maximum exposure in dogs occurred at the 300 mg/kg dose in the 9-month oral toxicity study and the AUClast is 1310*μg·hr/mL.

Data set [5] can be described thus: Phase 1 study BGE-105-101 Part A (SAD) pharmacokinetics after IV infusion. Format: in vivo, human. The note with it: for Dose-normalized AUCinf / Dose-normalized Cmax: Mean, unit assumed. How it is done:
(§4) In Part A, of 24 subjects enrolled (3 SAD cohorts, 8 subjects each), a total of at least 12 subjects are ≥65 years of age (≥4 subjects in each cohort). The remaining subjects are ≥18 years old.
as §1
On Day 1 for Part A, subjects receive LD, 1-hour infusion. On Day 3, after a 48-hour washout period, subjects then receive a 23-hour infusion (1-hour LD followed by a 22-hour MD). No earlier than 24 hours after the end of infusion, subjects is discharged from the clinic on Day 5 (End of Treatment Period [EOTP]). A treatment protocol for the SAD cohorts of Part A is described below: • a. Predose assessments (vital signs and PK assessments) should be done within 30 min of the start of infusion. • b. Vital signs include diastolic and systolic blood pressure and pulse. In addition, temperature and respiratory rate should be collected on predose Day 1 and EOT Day 5. • c. Safety laboratory tests include complete blood count, clinical chemistries, and urinalysis. • d. Assessments should be done within 1 hour after the end of the LD infusions on Day 1 and Day 3. • e. AEs was recorded from the start time of the first BGE-105 or placebo study drug infusion until the end of the subject's participation in the study. At discharge from the unit, any ongoing AEs was documented in source and in EDC be followed until the event is resolved or stabilized. Any new AEs occurring after discharge will clearly note the start date and end date. • f. Study drug was administered via IV infusion as a LD, 1-hour infusion on Day 1. After a 48-hour wash-out, study drug will then be administered as a 23-hour infusion (1-hour LD followed by a 22-hour MD). • g. Continuous cardiac ECG telemetry monitoring was used, continuing through the end of dosing on Day 4. • h. Blood samples for plasma insulin and glucose monitoring should be collected in the morning, before breakfast and after fasting overnight. • i. Assessments can be done any time after 24 hours after the end of infusion and before discharge.
Relevant plasma PK parameters are derived for BGE-105 by standard noncompartmental methods and tabulated along with descriptive statistics and graphs.

The subject of data set [6] is healthy older adult humans. Kind of data set: BGE-105 in immobilized human muscles, 10 days bed rest (Example 11). The settings on record: 200 mg of BGE-105 a day. Format: in vivo. From the text: Two groups of healthy older adult humans (e.g., n=10 per group) who are moderately active remain in bed continuously for 10 days, except for toileting, and they consume a eucaloric diet providing the recommended dietary allowance for protein (0.8 g/kg of protein per day). […] Measurements before and after bed rest include muscle function and protein synthesis.

Data set [7] deals with healthy volunteers aged≥65 years. In words: Phase 1b Part B (MD) safety. The data set is classed as in vivo, human. How it is done: as §2
The double-blind, placebo-controlled clinical trial evaluated the safety and pharmacodynamics of BGE-105.

In data set [8] the test system is immortalized muscle precursor cells from human patients. The note with it: cited from earlier work.
A further data set deals with immobilized aged mice. The settings on record: immobilized aged mice (20-months-old), orally dosed, vs control vehicle; cited from earlier work.
In data set [9] the test system is healthy adult subjects. In words: Phase 1 Part A (SAD) insulin resistance (HOMA-IR). The data set is classed as in vivo, human. The note with it: SAD cohorts 1, 2, 3; Day 3 Predose and Day 4 visits; largest decrease in cohort 3. The protocol: as §4
Biomarkers including, but not limited to changes in: • Plasma glucose • Plasma insulin • Insulin resistance (HOMA-IR)
as §1
Blood samples (4 mL) for plasma insulin and glucose monitoring are collected in the morning, before breakfast and after fasting overnight at timepoints described previously.
Data is analyzed as change from baseline within each dose cohort and treatment group. Treatment comparisons are made as a linear contrast of all treated compared to all placebo and for each individual dose cohort versus all placebo based on time-matched samples acquired during the 24-hour period on Day −1. P-values are reported uncorrected for multiplicity.

A short description of data set [10]: 14-day IV toxicity study in the rat. The data set is classed as in vivo. How it is done:
as §3

In data set [11] the test system is aged mice. The settings on record: aged mice (24-month-old) vs age-matched controls, cited from earlier work.

Here are results for 1 molecule from patent US20240366602A1, “COMBINATION THERAPY OF APELIN RECEPTOR AGONIST AND GLP-1 RECEPTOR AGONIST FOR TREATING A DISEASE OR CONDITION ASSOCIATED WITH WEIGHT GAIN” (BioAge Labs, Inc., priority 2023, published 2024).

Entries after “also recorded” stand apart in the source; their conditions may differ.

As to `COc1cccc(OC)c1-n1c(NS(=O)(=O)[C@@H](C)[C@H](C)c2ncc(C)cn2)nnc1-c1cncc(C)c1` [BGE-105, (2S,3R)—N-(4-(2,6-dimethoxyphenyl)-5-(5-methyl-3-pyridinyl)-4H-1,2,4-triazol-3-yl)-3-(5-methyl-2-pyrimidinyl)-2-butanesulfonamide], the “Muscle function, grid hang test (latency before mice fell from the grid)” value in [1] (semaglutide 100 nmol/kg, BGE-105 1.1 mg/mL, combination compared to either agent alone) is “increased muscle function”. Further, the “Weight of perigonadal fat at study endpoint” value in data set [1] (semaglutide 100 nmol/kg, BGE-105 1.1 mg/mL, combination loss statistically significant) is “statistically insignificant loss in perigonadal fat”. For the same molecule, the “Quadriceps weight as a percentage of total body weight at study endpoint” value in data set [1] (semaglutide 100 nmol/kg, BGE-105 1.1 mg/mL, vs DIO control mice) is “increased quadricep weight as a percentage of total body weight, but the increases did not achieve statistical significance”. Moreover, in [1] (vs DIO control mice), the “neutrophil gelatinase-associated lipocalin (NGAL) level at study endpoint” value is “decreased plasma NGAL level”. Besides, the “mRNA transcripts indicative of muscle regeneration” value in the data set on aged mice [2] was “significantly higher levels of several mRNA transcripts which are indicative of muscle regeneration”. Besides, the Serious adverse events entry with healthy adult subjects [3] (SAD cohorts Part A) is listed as “no serious adverse events”. The Tolerability entry is “well tolerated” in the data set on healthy adult subjects [3] (SAD cohorts, all doses including 240 mg/1440 mg) and “well tolerated” in data set [7] (Part B study). Also, the NOAEL entry in [4] and in data set [10] was “maximum dose tested” in each case. Further, in [5] (3 SAD cohorts, 95% confidence interval for slope includes 1), the “Dose proportionality of Cmax and AUC” value is listed as “demonstrated dose proportionality; also recorded: linear across the dose range”. Also, the Dose-normalized AUCinf in [5] (SAD1 (60 mg/360 mg) Day 1) was 0.66 µg·h/mL/mg; in [5] (SAD2 (120 mg/720 mg) Day 1), 0.49 µg·h/mL/mg; in data set [5] (SAD3 (240 mg/1440 mg) Day 1) it was 0.5 µg·h/mL/mg. Moreover, the values for the Dose-normalized Cmax in data set [5] (SAD1 (60 mg/360 mg) Day 1), in data set [5] (SAD2 (120 mg/720 mg) Day 1) and in [5] (SAD3 (240 mg/1440 mg) Day 1) were 0.12 µg/mL/mg, 0.11 µg/mL/mg and 0.11 µg/mL/mg, respectively. Besides, the “Muscle atrophy in immobilized human muscles” value in data set [6] was “prevent or attenuate muscle atrophy”. Also, in data set [7] (volunteers≥65 years old, 10 days of bed rest), the Serious adverse effects result was “no serious adverse effects”. In [8], the “Cell growth and differentiation” value was “dose-dependent relationship between cell growth and differentiation, and concentration of BGE-105”. Further, the Muscle atrophy entry in the data set on immobilized aged mice is “significantly reduced muscle atrophy”. Further, in the data set with healthy adult subjects [9], the “Percent change from baseline in HOMA-IR” value is “decrease in the percent change from baseline in HOMA-IR”. For the same molecule, in the data set with aged mice [11] (p=0.00228), the Voluntary motor activity entry is reported as “statistically significant increase in voluntary motor activity”. The Grip strength result in the data set with aged mice [11] (p=0.04) was “statistically significant improvement in grip strength”.
